Source: PMC10005185, “Structure-guided engineering of a receptor-agonist pair for inducible activation of the ABA adaptive response to drought” (Science Advances, 2023)
Where two headings read alike, the source gives them in different places. Blank lines part the entries; values can stand above or below the compound they belong to.

What was measured:
[1] = system: AtHAB1ΔN with CsPYL1^5m; experiment: PP2C inhibition assay, HAB1 with CsPYL1^5m; type: biochemical, Citrus sinensis (CsPYL1^5m); Arabidopsis thaliana (HAB1)
Description: His-tagged receptors and phosphatases were purified using nickel–nitrilotriacetic acid (Ni-NTA) affinity chromatography. Protein integrity was analyzed by SDS–polyacrylamide gel electrophoresis, followed by InstantBlue staining. Phosphatase activity was measured using p-Nitrophenyl Phosphate (pNPP) (25 mM) as substrate, 10 mM MnCl2,1 μM PP2C, and 2 μM of the indicated receptors. […] Assays were repeated twice. For dose-response experiments, IC50 values were obtained with GraphPad Prism 9 using a nonlinear regression curve fit. Each ligand concentration was tested in triplicate. Phosphatase activity of ABI1 was measured using RRA(phosphoT)VA peptide as a substrate, as described ([27]).

[2] = molecular target: AtPYL5:ΔNHAB1 (Arabidopsis thaliana, UniProt Q9FLB1); experiment: Native red electrophoresis of ligand-induced ternary complex
Description: Electrophoresis was performed at a constant current of 25 mA for 150 min at 4°C. Proteins were detected in gel by InstantBlue staining, and band quantification was performed using the ImageJ software. To obtain apparent Kd values, the proportion of ternary complex formed (fraction bound) and the ABA or iSB09 free concentration in each lane were calculated and plotted as represented in Fig. 3 (E and F). Then, the dose-response curves were fitted to the classical Hill equation using the GraphPad Prism software.

[3] = system: Arabidopsis thaliana seeds (WT Col-0, CsPYL1 and CsPYL1^5m lines); experiment: Seed germination assay; type: in vivo; details: Arabidopsis thaliana
Description: For seed germination assays, seeds were stratified in the dark at 4°C for 3 days. Approximately 100 seeds of each genotype were sown on MS plates supplemented with six different ligand concentrations. The experiments were repeated three times. To score seed germination, radical emergence was analyzed at 24 hours after sowing.

[4] = molecular target: T1, ABI1 with AtPYL1 (Arabidopsis thaliana, UniProt Q8VZS8); experiment: PP2C inhibition assay, ABI1 with AtPYL1; type: biochemical
T1 construct: His; made in house
Description: (§1) His-tagged receptors and phosphatases were purified using nickel–nitrilotriacetic acid (Ni-NTA) affinity chromatography. Protein integrity was analyzed by SDS–polyacrylamide gel electrophoresis, followed by InstantBlue staining. Phosphatase activity was measured using p-Nitrophenyl Phosphate (pNPP) (25 mM) as substrate, 10 mM MnCl2,1 μM PP2C, and 2 μM of the indicated receptors. Proteins were incubated with the ligands for 10 min at room temperature. pNPP was then added to start the reactions, and the absorbance at 405 nm was monitored for 20 min in a ViktorX5 plate reader. Assays were repeated twice. For dose-response experiments, IC50 values were obtained with GraphPad Prism 9 using a nonlinear regression curve fit. Each ligand concentration was tested in triplicate. Phosphatase activity of ABI1 was measured using RRA(phosphoT)VA peptide as a substrate, as described ([27]). […]
(§2) (D) Dose response analysis of iSB09 or ABA-dependent inhibition of ABI1 (blue and black lines, respectively) in presence of either AtPYL1 or AtPYR1. Values (average of duplicates) show PP2C activity after incubation with the indicated concentration of ligand and receptor at 1:2 ratio (1 µM phosphatase:2 µM receptor). […]
(§3) whereas with AtPYR1 was 200 nM and 213 nM, for ABA and iSB09, respectively. Ligands were assayed

[5] = molecular target: T2, ABI1 with AtPYR1 (Arabidopsis thaliana, UniProt O49686); experiment: PP2C inhibition assay, ABI1 with AtPYR1; type: biochemical
T2 construct: His; made in house
Description: as §1, §2, §3

[6] = system: Nicotiana benthamiana WT plants; experiment: IR thermography of leaf temperature, N. benthamiana; type: in vivo; details: nontransformed leaves, 24 hours after spraying, 50 μM ABA or 100 μM iSB07 or iSB09, compared to mock
Description: IR images were taken using a FLIR […] thermocamera 1 day after the treatment (for N. benthamiana) or 2 and 5 days (for S. lycopersicum). Quantification was performed using the FLIR tools software on fully expanded leaves by analyzing 10 sections per leaf. At least six plants per genotype and treatment were analyzed in each experiment. Experiments were repeated twice. The average plant temperature ± SD of all the plants for each treatment and genotype was calculated and used to report the increase in temperature produced by each treatment. Statistical comparisons among genotypes were performed by either pairwise t tests or one-way ANOVA.

[7] = system: Arabidopsis thaliana seedlings (WT Col-0, overexpressing lines, receptor mutants); details: pyr1 pyl1 double mutant ref 36; cited from earlier work
[8] = molecular target: T3, ΔNHAB1 with AtPYL1 (Arabidopsis thaliana, UniProt Q8VZS8); details: AtPYL1 ref 45; cited from earlier work
T3 construct: His; made in house

[9] = molecular target: T4, HAB1 with AtPYL4 (Arabidopsis thaliana, UniProt O80920); experiment: PP2C inhibition assay, HAB1 with AtPYL4; type: biochemical; details: 1 µM phosphatase:2 µM receptor
T4 construct: His; made in house
Description: His-tagged receptors and phosphatases were purified using nickel–nitrilotriacetic acid (Ni-NTA) affinity chromatography. Protein integrity was analyzed by SDS–polyacrylamide gel electrophoresis, followed by InstantBlue staining. Phosphatase activity was measured using p-Nitrophenyl Phosphate (pNPP) (25 mM) as substrate, 10 mM MnCl2,1 μM PP2C, and 2 μM of the indicated receptors. Proteins were incubated with the ligands for 10 min at room temperature. pNPP was then added to start the reactions, and the absorbance at 405 nm was monitored for 20 min in a ViktorX5 plate reader. Assays were repeated twice. For dose-response experiments, IC50 values were obtained with GraphPad Prism 9 using a nonlinear regression curve fit. Each ligand concentration was tested in triplicate. Phosphatase activity of ABI1 was measured using RRA(phosphoT)VA peptide as a substrate, as described ([27]).
(§4) Fig. S6. QB lacks bioactivity in tomato whereas iSB09 is
(§5) (A) Quantification of the leaf temperature difference at 2 and 5 days after spraying tomato plants with 0.1 % DMSO
(§6) (mock- treated control), 10 µM iSB09 or 10 µM QB.
Asterisk indicates p<0.001 (Student’s t test). Values show individual points and average ± SD (n=4 replicates for mock and chemical treatments). (B) IR-images of representative tomato plants at 2 days after being treated with 0.1 % DMSO […]

[10] = molecular target: T5, ΔNHAB1 with AtPYL10 (Arabidopsis thaliana, UniProt Q8H1R0); details: AtPYL10 ref 45; cited from earlier work
T5 construct: His; made in house

[11] = system: tomato plants; experiment: IR thermography of leaf temperature, tomato; type: in vivo, Solanum lycopersicum; details: 10 μM, 2 and 5 days after spraying
Description: For experiments using N. benthamiana or S. lycopersium, 1-month-old plants grown under long-day conditions (16-hour light/8-hour dark) were sprayed with 10 mM MES (pH 5.7) + 0.02% Silwet L77 supplemented with either 50 μM ABA, or the indicated concentration of iSB07/iSB09 or 0.1% DMSO as a mock-treated control. IR images were taken using a FLIR E95 thermocamera 1 day after the treatment (for N. benthamiana) or 2 and 5 days (for S. lycopersicum). Quantification was performed using the FLIR tools software on fully expanded leaves by analyzing 10 sections per leaf. At least six plants per genotype and treatment were analyzed in each experiment. Experiments were repeated twice. The average plant temperature ± SD of all the plants for each treatment and genotype was calculated and used to report the increase in temperature produced by each treatment. Statistical comparisons among genotypes were performed by either pairwise t tests or one-way ANOVA.
as §4, §5, §6
Asterisk indicates p<0.001 (Student’s t test). Values show individual points and average ± SD (n=4 replicates for mock and chemical treatments). (B) IR-images of representative tomato plants at 2 days after being treated with 0.1 % DMSO
Photographs were taken with white light (leaf panel) or infrared thermography (right panel) using the camera FLIR
HAB1 phosphatase activity in presence of PYL4. IC50 values for iSB09 or QB-dependent inhibition of HAB1 by AtPYL4. Values (average of duplicates) show PP2C activity after incubation with the indicated concentration of ligand and AtPYL4 at 1:2 ratio (1 µM phosphatase:2 µM receptor).
(1 picture or pasted object on this page, not shown here)

[12] = system: Arabidopsis thaliana seedlings; experiment: Root growth assay; type: in vivo; details: 10 μM
Description: Seedlings were grown on vertically oriented Murashige and Skoog (MS) plates for 4 to 5 days. Afterward, seedlings were transferred to MS supplemented with the indicated concentrations of the different ligands and kept on vertical orientation. Ten days later, the plates were scanned on a flatbed scanner to produce image files suitable for quantitative analysis of root growth using the NIH Image software ImageJ. The experiment was performed in triplicate (n = 13 to 16). Statistical comparisons were performed by either pairwise t tests or one-way ANOVA using GraphPad Prism 9.

[13] = system: MAPKKK18 promoter-LUC reporter; experiment: pMAPKKK18-LUC luciferase reporter assay; type: in vivo, Arabidopsis thaliana; details: 100 μM, 6 hours
Description: […]18-LUC seedlings were grown in 24-well plates (25 to 35 seeds per well) filled with 1 ml of liquid MS medium for 7 days. MS medium was replaced with fresh medium supplemented with 100 μM D-luciferin, potassium salt (GoldBio), and the indicated treatments with iSB07, iSB09, or ABA. Seedlings were incubated for 6 hours, and luminescence was recorded with a LAS-3000 imager (Fujifilm) equipped with a charge-coupled device camera using 2-min exposures. Eight-bit images were transformed in rainbow false color and quantified using Fiji. The experiment was repeated at least twice.

[14] = system: Arabidopsis thaliana plants; experiment: IR thermography of leaf temperature, arabidopsis; type: in vivo; details: transgenic CsPYL1^5m lines and Col-0, 50 μM, 24 hours after spraying
Description: A. thaliana plants were grown in a controlled environment growth chamber at 21°/19°C under 8-hour light/16-hour dark photoperiod at 100 μE m^−2 s^−1. IR thermography images of rosette leaves were acquired with a thermal camera FLIR E95 equipped with a 42° lens, 24 hours after spraying 6-week-old plants with 10 mM MES (pH 5.7) + 0.02% Silwet L-77 plus 50 μM ligand or 0.1% DMSO as a control. Images were processed and quantified with the FLIR tools software. The average temperature of 15 different sections taken from four to six leaves per plant was used for quantification. At least six plants per genotype were analyzed, and the experiments were repeated twice. Statistical analysis was performed using GraphPad Prism 9. T test or ANOVA analysis was carried out to identify statistical significance among datasets.

[15] = system: Arabidopsis thaliana plants (WT Col-0, CsPYL1^5m lines); experiment: Whole-plant gas exchange, stomatal conductance (Gs); type: in vivo
Description: A. thaliana seeds were planted in specific gas exchange pots, where above- and below-ground parts can be separated by glass into 2:1 (v:v) peat:vermiculite mixture. The plants were grown in growth chambers (Snijders Scientific, Drogenbos, Belgium) at 12/12 photoperiod, 23/18°C temperature, 160 μmol m^−2 s^−1 light, and 70% relative humidity and were 23 to 28 days old during gas exchange experiments. Whole-rosette stomatal conductances were recorded with an eight-chamber custom-built temperature-controlled gas exchange device as described before ([72]). Plants were inserted into the measurement cuvettes and allowed to stabilize at standard conditions: ambient CO2, ~420 ppm; air temperature, 24° ± 0.5°C; light, 160 μmol m^−2 s^−1; relative air humidity, 66 ± 3%. For sprayings, plants were removed from gas exchange cuvettes, sprayed with respective solutions, and put back into the cuvettes for stomatal conductance recordings for 56 min. To check the long-term effect of compounds on plants, stomatal conductance measurements were performed about 24 and 48 hours after sprayings. In the meantime, plants were kept in growth chambers as described above. Photographs of plants were taken after the experiment, and leaf rosette area was calculated using ImageJ 1.37v [National Institutes of Health (NIH), USA]. Stomatal conductance for water vapor was calculated with a custom-written program as described ([72]).

T3 sequence (Q8VZS8 whole entry, stated change not applied): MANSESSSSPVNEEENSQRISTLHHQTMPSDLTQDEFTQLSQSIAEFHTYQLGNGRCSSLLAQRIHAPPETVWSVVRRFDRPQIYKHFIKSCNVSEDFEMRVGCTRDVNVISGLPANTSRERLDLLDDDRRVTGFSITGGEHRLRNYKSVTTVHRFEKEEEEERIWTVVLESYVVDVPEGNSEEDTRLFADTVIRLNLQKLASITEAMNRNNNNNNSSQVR
T1 sequence (Q8VZS8 whole entry): as the sequence (Q8VZS8 whole entry, stated change not applied) above
T1 sequence (P49597 whole entry partner): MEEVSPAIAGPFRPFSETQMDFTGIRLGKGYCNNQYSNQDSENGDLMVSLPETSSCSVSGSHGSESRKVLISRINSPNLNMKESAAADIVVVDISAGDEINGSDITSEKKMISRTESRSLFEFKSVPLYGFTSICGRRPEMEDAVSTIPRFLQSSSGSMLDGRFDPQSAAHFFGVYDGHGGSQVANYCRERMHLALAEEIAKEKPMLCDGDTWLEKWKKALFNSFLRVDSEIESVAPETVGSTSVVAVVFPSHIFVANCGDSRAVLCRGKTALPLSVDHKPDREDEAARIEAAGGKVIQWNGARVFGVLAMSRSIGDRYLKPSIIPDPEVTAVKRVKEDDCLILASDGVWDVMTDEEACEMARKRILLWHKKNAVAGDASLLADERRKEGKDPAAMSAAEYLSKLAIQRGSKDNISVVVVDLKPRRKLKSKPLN
T2 sequence (O49686 whole entry): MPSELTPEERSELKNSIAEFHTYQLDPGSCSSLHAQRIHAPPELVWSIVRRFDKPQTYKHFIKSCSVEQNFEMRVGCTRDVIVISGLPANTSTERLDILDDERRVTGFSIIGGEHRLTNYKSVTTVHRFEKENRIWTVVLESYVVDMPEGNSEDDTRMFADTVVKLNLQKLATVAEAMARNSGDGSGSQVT
T2 sequence (P49597 whole entry partner): as the sequence (P49597 whole entry partner) above
Sequence of AtPYL5:ΔNHAB1 (Q9FLB1 whole entry, stated change not applied): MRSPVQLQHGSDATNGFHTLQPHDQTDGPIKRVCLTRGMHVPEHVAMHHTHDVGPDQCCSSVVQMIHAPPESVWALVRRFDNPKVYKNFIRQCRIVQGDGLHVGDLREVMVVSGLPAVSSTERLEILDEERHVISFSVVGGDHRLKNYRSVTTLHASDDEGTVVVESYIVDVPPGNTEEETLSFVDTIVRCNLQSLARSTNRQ
T4 sequence (Q9CAJ0 179-511): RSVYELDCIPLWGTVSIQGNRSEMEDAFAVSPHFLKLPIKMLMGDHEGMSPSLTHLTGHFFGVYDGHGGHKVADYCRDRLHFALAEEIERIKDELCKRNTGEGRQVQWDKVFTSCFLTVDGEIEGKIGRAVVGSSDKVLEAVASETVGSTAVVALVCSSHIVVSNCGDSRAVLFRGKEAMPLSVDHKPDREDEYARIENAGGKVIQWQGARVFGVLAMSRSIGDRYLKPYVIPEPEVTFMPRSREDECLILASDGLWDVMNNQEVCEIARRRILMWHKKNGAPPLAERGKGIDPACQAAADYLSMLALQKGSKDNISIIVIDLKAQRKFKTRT
T4 sequence (O80920 whole entry): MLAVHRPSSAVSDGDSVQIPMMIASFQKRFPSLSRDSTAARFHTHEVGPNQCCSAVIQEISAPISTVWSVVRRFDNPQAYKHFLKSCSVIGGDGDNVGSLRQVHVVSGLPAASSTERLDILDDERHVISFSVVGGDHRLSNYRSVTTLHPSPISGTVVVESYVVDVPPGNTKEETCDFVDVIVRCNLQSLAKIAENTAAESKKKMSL
T5 sequence (Q8H1R0 whole entry, stated change not applied): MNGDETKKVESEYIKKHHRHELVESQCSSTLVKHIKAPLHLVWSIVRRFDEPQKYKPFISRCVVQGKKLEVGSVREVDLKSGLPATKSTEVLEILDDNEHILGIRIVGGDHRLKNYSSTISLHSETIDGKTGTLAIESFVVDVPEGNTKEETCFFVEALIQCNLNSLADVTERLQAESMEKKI

SMILES: CC1=CC(=O)CC(C)(C)[C@@]1(O)/C=C/C(C)=C\C(=O)O [ABA, abscisic acid, reference compound]
IC50 of ABA for CsPYL1^5m compared to WT CsPYL1 [1]: fourfold increase | Kd [2]: 2100 nM | IC50 ([3]; read-out: Germination IC50, WT Col-0): 216 nM | IC50 ([3]; read-out: Germination IC50, line expressing CsPYL1): 304 nM | IC50 ([3]; read-out: Germination IC50, line expressing CsPYL1^5m): 458 nM | IC50 [4]: 274 nM | IC50 [5]: 200 nM | leaf temperature by thermal imaging [6]: increased leaf temperature

SMILES: CCCN1C(=O)CCc2cc(NS(=O)(=O)Cc3c(F)c(F)c(C)c(F)c3F)ccc21 [AMF4]
effect in pyr1 pyl1 double mutant [7]: lack effect

SMILES: CCCN1C(=O)CCc2cc(NS(=O)(=O)Cc3ccc(C)cc3)ccc21 [QB, quinabactin]
receptor activation [8]: activates AtPYL1 | effect in pyr1 pyl1 double mutant [7]: lack effect | IC50 [9]: 1880 nM | receptor activation [10]: not AtPYL10 | bioactivity in tomato (leaf temperature) [11]: lacked bioactivity

induction of LUC relative to iSB09 [13]: approximately fivefold lower
SMILES: Cc1cc(=O)n(C)c2ccc(CNS(=O)(=O)c3ccccc3)cc12 [iSB07]
inhibition of root growth ([12]; CsPYL1^5m lines): marked inhibition | inhibition of root growth ([12]; WT plants): did not significantly inhibit | leaf temperature by thermal imaging [14]: increased leaf temperature | IC50 ([3]; WT Col-0, read-out: Germination IC50): 12700 nM | IC50 ([3]; line expressing CsPYL1, read-out: Germination IC50): 4030 nM | IC50 ([3]; line expressing CsPYL1^5m, read-out: Germination IC50): 943 nM | reduction of stomatal conductance (Gs) ([15]; WT, spraying with 20 μM): not effective | reduction of Gs 24 and 48 hours after spraying ([15]; transgenic lines, 5 μM): nonsignificant | leaf temperature by thermal imaging [6]: increased leaf temperature
